According to PubChem BioAssay AID330 (DTP/NCI, 2004):
“And” between values parts separate entries of the source, which are not always exact repeats. Identical values can stand only once. Toxic doses and inconclusive results are not listed. Rule for the calls: active = survival T/C of 150% or more; inactive = T/C below 125% in these data.

Tested on: P388 leukemia ip, CD2F1 mice, survival T/C
Experiment: NCI In Vivo Anticancer Drug Screen. Data for tumor model P388 Leukemia (intraperitoneal) in CD2F1 (CDF1) mice
Settings: endpoint: median survival time, higher = longer survival
In short: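 Mice carrying the transplanted tumor received test compound or vehicle. Survival was recorded in each group, and the value is the treated-group measurement divided by that of the vehicle-treated control group.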

[1] = dose: 60.0 mg/kg/injection, schedule: Q01DX005 (ip), vehicle: saline with Tween-80

Measured: T/C

Clc1ccccc1C(Nc1nncs1)Nc1nncs1
inactive: [1] 106 % of control | dose: 120.0 mg/kg/injection, schedule: Q01DX005 (ip), vehicle: saline with Tween-80 113 % of control | dose: 240.0 mg/kg/injection, schedule: Q01DX005 (ip), vehicle: saline with Tween-80 122 % of control

O=C(O)Cc1ccc(C2CCCCC2)cc1
inactive: dose: 100.0 mg/kg/injection, schedule: Q04DX003 (ip), vehicle: Klucel (hydroxypropylcellulose) (HPC) 90 % of control | dose: 200.0 mg/kg/injection, schedule: Q04DX003 (ip), vehicle: Klucel (hydroxypropylcellulose) (HPC) 100 % of control | dose: 400.0 mg/kg/injection, schedule: Q04DX003 (ip), vehicle: Klucel (hydroxypropylcellulose) (HPC) 100 % of control

CCC1=CC2CN(CCc3c([nH]c4ccccc34)C(C(=O)OC)(c3cc4c(cc3OC)N(C)C3C(O)(C(=O)OC)C(OC(C)=O)C5(CC)CCCN6CCC43C65)C2)C1 (stereo unspecified)
inactive: dose: 0.06 mg/kg/injection, schedule: Q01DX009 (ip), vehicle: water 95 % of control | dose: 0.13 mg/kg/injection, schedule: Q01DX009 (ip), vehicle: water 94 % of control | dose: 0.25 mg/kg/injection, schedule: Q01DX009 (ip), vehicle: water 94 % of control | dose: 0.5 mg/kg/injection, schedule: Q01DX009 (ip), vehicle: water 90 % of control | dose: 1.0 mg/kg/injection, schedule: Q01DX001 (ip), vehicle: water 100 % of control and 115 % of control | dose: 1.0 mg/kg/injection, schedule: Q01DX009 (ip), vehicle: water 90 % of control | dose: 2.0 mg/kg/injection, schedule: Q01DX001 (ip), vehicle: water 107 % of control and 100 % of control | dose: 2.0 mg/kg/injection, schedule: Q01DX009 (ip), vehicle: water 106 % of control and 110 % of control | dose: 4.0 mg/kg/injection, schedule: Q01DX001 (ip), vehicle: water 110 % of control and 108 % of control | dose: 4.0 mg/kg/injection, schedule: Q01DX009 (ip), vehicle: water 109 % of control and 111 % of control | dose: 8.0 mg/kg/injection, schedule: Q01DX001 (ip), vehicle: water 119 % of control and 109 % of control and 115 % of control | dose: 8.0 mg/kg/injection, schedule: Q01DX009 (ip), vehicle: water 122 % of control | dose: 16.0 mg/kg/injection, schedule: Q01DX001 (ip), vehicle: water 122 % of control and 112 % of control and 116 % of control | dose: 32.0 mg/kg/injection, schedule: Q01DX001 (ip), vehicle: water 122 % of control and 115 % of control and 119 % of control

O=C1OC2(CC1n1cnc3ccccc3c1=O)C(=O)Nc1ccccc12 (stereo unspecified)
inactive: dose: 8.75 mg/kg/injection, schedule: Q01DX005 (ip), vehicle: Klucel (hydroxypropylcellulose) (HPC) 111 % of control | dose: 17.5 mg/kg/injection, schedule: Q01DX005 (ip), vehicle: Klucel (hydroxypropylcellulose) (HPC) 90 % of control | dose: 35.0 mg/kg/injection, schedule: Q01DX005 (ip), vehicle: Klucel (hydroxypropylcellulose) (HPC) 91 % of control

O=C(CCl)N/N=C(\Cc1ccccc1)c1ccccc1
inactive: dose: 100.0 mg/kg/injection, schedule: Q01DX009 (ip), vehicle: saline with Tween-80 97 % of control | dose: 200.0 mg/kg/injection, schedule: Q01DX009 (ip), vehicle: saline with Tween-80 98 % of control | dose: 400.0 mg/kg/injection, schedule: Q01DX009 (ip), vehicle: saline with Tween-80 103 % of control

NCCCn1[nH]c(=O)c2cnccc2c1=O
inactive: dose: 50.0 mg/kg/injection, schedule: Q01DX005 (ip), vehicle: saline 103 % of control | dose: 100.0 mg/kg/injection, schedule: Q01DX005 (ip), vehicle: saline 94 % of control | dose: 200.0 mg/kg/injection, schedule: Q01DX005 (ip), vehicle: saline 101 % of control

Cn1c(=O)c2c(nc([N+](=O)[O-])n2C)n(C)c1=O
inactive: dose: 100.0 mg/kg/injection, schedule: Q04DX003 (ip), vehicle: saline 104 % of control | dose: 200.0 mg/kg/injection, schedule: Q04DX003 (ip), vehicle: saline 100 % of control

O=C(O)/C=C/CCCCCO
inactive: dose: 100.0 mg/kg/injection, schedule: Q01DX001 (ip), vehicle: saline with Tween-80 94 % of control | dose: 200.0 mg/kg/injection, schedule: Q01DX001 (ip), vehicle: saline with Tween-80 97 % of control | dose: 400.0 mg/kg/injection, schedule: Q01DX001 (ip), vehicle: saline with Tween-80 90 % of control

COc1cc2cc(c1Cl)N(C)C(=O)CC(OC(=O)C(C)N(C)C(=O)C(C)C)C1(C)OC1C(C)C1CC(OC)(NC(=O)O1)C(OC)/C=C/C=C(C)C2OC (stereo unspecified)
inactive: dose: 16.0 mg/kg/injection, schedule: Q01DX009 (ip), vehicle: saline 98 % of control | dose: 32.0 mg/kg/injection, schedule: Q01DX009 (ip), vehicle: saline 114 % of control | dose: 64.0 mg/kg/injection, schedule: Q01DX009 (ip), vehicle: saline 100 % of control | dose: 128.0 mg/kg/injection, schedule: Q01DX009 (ip), vehicle: saline 100 % of control | dose: 4.0 micrograms/kg/injection, schedule: Q01DX009 (ip), vehicle: saline 99 % of control | dose: 8.0 micrograms/kg/injection, schedule: Q01DX009 (ip), vehicle: saline 99 % of control | dose: 16.0 micrograms/kg/injection, schedule: Q01DX009 (ip), vehicle: saline 103 % of control | dose: 32.0 micrograms/kg/injection, schedule: Q01DX009 (ip), vehicle: saline 111 % of control

OC(c1ccccc1I1OC(C(F)(F)F)(C(F)(F)F)c2ccccc21)(C(F)(F)F)C(F)(F)F (tested in a mixture with another compound)
inactive: dose: 1.56 mg/kg/injection, schedule: Q01DX005 (ip), vehicle: Klucel (hydroxypropylcellulose) (HPC) 99 % of control | dose: 3.12 mg/kg/injection, schedule: Q01DX005 (ip), vehicle: Klucel (hydroxypropylcellulose) (HPC) 93 % of control | dose: 6.25 mg/kg/injection, schedule: Q01DX005 (ip), vehicle: Klucel (hydroxypropylcellulose) (HPC) 98 % of control

CN(C)C(=O)N1OC(CN)CC1=O (stereo unspecified)
inactive: dose: 60.0 mg/kg/injection, schedule: Q01DX005 (ip), vehicle: Klucel (hydroxypropylcellulose) (HPC) 105 % of control | dose: 120.0 mg/kg/injection, schedule: Q01DX005 (ip), vehicle: Klucel (hydroxypropylcellulose) (HPC) 104 % of control | dose: 240.0 mg/kg/injection, schedule: Q01DX005 (ip), vehicle: Klucel (hydroxypropylcellulose) (HPC) 105 % of control

CSCSCC(CO)NC(=O)/C=C/c1c[nH]c(=O)[nH]c1=O (stereo unspecified)
inactive: dose: 1.0 mg/kg/injection, schedule: Q01DX009 (ip), vehicle: other 92 % of control | dose: 2.0 mg/kg/injection, schedule: Q01DX009 (ip), vehicle: other 97 % of control | dose: 4.0 mg/kg/injection, schedule: Q01DX009 (ip), vehicle: other 98 % of control | dose: 8.0 mg/kg/injection, schedule: Q01DX009 (ip), vehicle: other 93 % of control | dose: 16.0 mg/kg/injection, schedule: Q01DX009 (ip), vehicle: other 102 % of control | dose: 32.0 mg/kg/injection, schedule: Q01DX009 (ip), vehicle: other 107 % of control

CCc1nnc2ccncn12
inactive: dose: 100.0 mg/kg/injection, schedule: Q04DX003 (ip), vehicle: saline with Tween-80 97 % of control | dose: 200.0 mg/kg/injection, schedule: Q04DX003 (ip), vehicle: saline with Tween-80 90 % of control | dose: 400.0 mg/kg/injection, schedule: Q04DX003 (ip), vehicle: saline with Tween-80 102 % of control

CN(O)C(=O)C(C)(C)C
inactive: dose: 100.0 mg/kg/injection, schedule: Q01DX005 (ip), vehicle: saline with Tween-80 99 % of control | dose: 200.0 mg/kg/injection, schedule: Q01DX005 (ip), vehicle: saline with Tween-80 103 % of control | dose: 400.0 mg/kg/injection, schedule: Q01DX005 (ip), vehicle: saline with Tween-80 103 % of control

OC1COc2ccccc2OCCOCCOc2ccccc2OC1
inactive: dose: 15.0 mg/kg/injection, schedule: Q01DX005 (ip), vehicle: saline with Tween-80 100 % of control | dose: 30.0 mg/kg/injection, schedule: Q01DX005 (ip), vehicle: saline with Tween-80 94 % of control | [1] 95 % of control and 96 % of control

C1=[N+]2CCCC2Cc2ccc3ccccc3c21 (stereo unspecified)
inactive: dose: 12.5 mg/kg/injection, schedule: Q04DX003 (ip), vehicle: saline 100 % of control | dose: 25.0 mg/kg/injection, schedule: Q04DX003 (ip), vehicle: saline 103 % of control | dose: 50.0 mg/kg/injection, schedule: Q04DX003 (ip), vehicle: saline 100 % of control

CC(=O)NCc1cc(C)c(CBr)cc1CBr
inactive: dose: 0.78 mg/kg/injection, schedule: Q01DX009 (ip), vehicle: distilled water + Tween-80 103 % of control | dose: 1.56 mg/kg/injection, schedule: Q01DX009 (ip), vehicle: distilled water + Tween-80 107 % of control | dose: 3.12 mg/kg/injection, schedule: Q01DX009 (ip), vehicle: distilled water + Tween-80 109 % of control | dose: 6.25 mg/kg/injection, schedule: Q01DX009 (ip), vehicle: distilled water + Tween-80 116 % of control | dose: 12.5 mg/kg/injection, schedule: Q01DX009 (ip), vehicle: distilled water + Tween-80 93 % of control
